From EP4644391A1, “NOVEL PHENYLQUINOLONE COMPOUND HAVING ANTIBACTERIAL AND ANTICANCER FUNCTIONS, AND PREPARATION THEREOF” (Alphamol Science Ltd (Shanghai), priority 2022, dated 2024) come the findings set out here.

Common to all, as to experiment: In vitro anticancer activity test (MTT cell proliferation assay)
Common to all, as to assay type: cell-based

Assay [1] concerns human malignant melanoma cell A375. The note with it: A-375. As to the method:
(§1) The anticancer activity of the compounds was tested using an in vitro cancer cell tests. The specific test method is as follows: • 1. Cell recovery and culture method: the cryovial was taken out from the liquid nitrogen container firstly, soaked directly in 37°C warm water, and shaked from time to time to let it thaw as soon as possible. Then, the cryovial was transferred to a clean bench, and the lid was open. The cell suspension was taken into a centrifuge tube using a rubber-tipped dropper and more than 10 times the culture medium was added, mixed well, and centrifuged at 50g for 5 minutes. Then, the supernatant was discarded, complete culture medium containing 10% fetal bovine serum was added to resuspend the cells, the cells was counted, the cell density was adjusted, and then inoculated into a culture bottle. The culture bottle was placed in a cell culture incubator at 5% CO2 and 37°C. The complete culture medium was replaced once the next day and the culture was continued. • 2. Cell passaging method: adherent cells in the logarithmic growth phase were placed in a clean bench, the original culture medium was discarded, and washed three times with 1×PBS. An appropriate amount of 0.25% trypsin digestion solution was added to moisten the cells, and then the trypsin solution was aspirated. The cells were placed in a cell culture incubator at 5% CO2 and 37°C for digestion for a suitable time, and observed under a microscope. When 90% of the cells become round, the cells were moved immediately to the clean bench and complete culture medium was added to terminate digestion. Then, the cells were dislodged by pipetting up and down with a rubber-tipped dropper to single cells. The cells were counted, and the cell density was adjusted. The cells were inoculated into a suitable culture bottle or dish, added enough complete culture medium, and placed in a cell culture incubator at 5% CO2 and 37°C for static culture. For suspension cells in the logarithmic phase, the original culture medium was directly centrifuged at 50g for 5 minutes, the supernatant was discarded, and the cells were washed once with PBS and centrifuged. After discarding the supernatant, the complete culture medium was added and the cells were dispersed using a rubber-tipped dropper. The cells are counted, and the cell density was adjusted. The cells were inoculated into appropriate culture bottles or culture dishes, and sufficient complete culture medium was added, and the cells were cultured in a cell culture incubator at 5% CO2 and 37°C. • 3. Cell proliferation assay: cells in good state in logarithmic phase were taken and appropriate amount of the cells was inoculated into 96-well plates according to the cell passage treatment method, with each well containing 180 µL complete medium. After the cells growth was recovered and the number of cells in each well is 5000±500, a drug was added for treatment. After drug treatment during the experimental time, MTT solution with a final concentration of 0.5 mg/mL was added to each well, and placed in a cell culture incubator at 5% CO2 and 37°C to allow a fully reaction of MTT with cells. After 4 hours, the solution in the 96-well plate was discarded, 100 µL of DMSO was added, and shaked to dissolve the formazan precipitated at the bottom of the plate, and the absorbance value of samples was detected at a wavelength of 570 nm using a microplate reader. Calculation method of cell viability rate: Viability rate = A sample group÷A control group × 100% [formula] • 4. Cell photography step: cells in good state in logarithmic phase were taken and an appropriate amount of cells was inoculated into 96-well plates according to the cell passage treatment method, with each well containing 180 µL complete medium. After the cells growth was recovered and the number of cells in each well is 5000 ± 500, a drug was added for treatment. […]

The subject of assay [2] is human gastric cancer cell MGC-803. As to the method: as §1
Assay [3] deals with human non-small cell lung cancer cell A549. As to the method: as §1
Assay [4] deals with human breast cancer cell MFM223. The note with it: MFM-223. On the procedure:
as §1

Assay [5] concerns human Burkitt's lymphoma cell Raji. As to the method:
as §1

The test system of assay [6] is human prostate cancer cell PC-3. On the procedure:
as §1

A further assay deals with human glioma cell SNB-19. On the procedure:
as §1

A further assay deals with Hela. To be noted: Homo sapiens. On the procedure:
as §1

Assay [7] has as its system human colon cancer cell HCT 116. On the procedure:
as §1

For assay [8], the system named is human liver cancer cell HepG2. As to the method:
as §1

Assay [9] relates to human osteosarcoma cell U2-OS. To be noted: U2OS. On the procedure: as §1
The test system of assay [10] is pancreatic cancer cell PNAC-1. As to the method: as §1

The term IC50 denotes the concentration needed to halve the response being measured. Higher therefore signals weaker potency in that assay. `O=C(O)c1cn(C2CC2)c2cc(N3CCNCC3)c(F)cc2c1=O` [Ciprofloxacin]: the IC50 in assay [1], in assay [2], in assay [3], in assay [4], in assay [5] and in assay [6] was greater than 100 µM each time. The IC50 (in the assay on human glioma cell SNB-19; with Hela; in assay [7]; in assay [8]; in assay [9]; in [10]) was greater than 100 µM in each case.

Broadly, the inhibition is the share of the control response that was lost under treatment. Lower therefore signals a response near the control. In the case of `O=C(O)c1cn(C2CC2)c2c(Cl)c(-c3ccc(S(=O)(=O)NCCCC(F)(F)F)nc3)c(F)cc2c1=O` [Example 29, 8-chloro-1-cyclopropyl-6-fluoro-4-oxo-7-(6-(N-(4,4,4-trifluorobutyl)sulfamoyl)pyridin-3-yl)-1,4-dihydroquinolin-3-carboxylic acid], the IC50 in assay [1], in assay [2], in assay [3], in assay [4], in assay [5] and in assay [6] was 1 to 10 µM each time. Moreover, the IC50 (with human glioma cell SNB-19; with Hela; in assay [7]; in assay [8]; in assay [9]; in assay [10]) was 1 to 10 µM throughout. The molecule also registered an inhibition at 40 µM with Hela (average proliferation inhibition rate at the dosage of 40 µM) of no less than 50%.

As to `CCN(CC)CCNC(=O)c1c(C)[nH]c(/C=C2\C(=O)Nc3ccc(F)cc32)c1C` [Sunitinib], the IC50 was found to be 19.2 ± 4.6 µM in [1]; 17.5 ± 2.4 µM in assay [2]; 12.9 ± 10.2 µM in assay [3]; 10.2 ± 3.8 µM in assay [4]; 20.3 ± 2 µM in [5]; 14.7 ± 6.6 µM in assay [6]. For the same molecule, the IC50 was determined as 6.5 ± 1.2 µM in the assay with human glioma cell SNB-19; 12 ± 2 µM with Hela; 20.7 ± 4.6 µM in assay [7]; 9.6 ± 2.1 µM in assay [8]; 4.7 ± 1.1 µM in assay [9]; 22.4 ± 5.2 µM in [10].
